Several values for one entry are separate records, joined by “and”; a condition that tells them apart may be missing. Equal values may be shown once. Read-outs that look alike come from different tables or passages of the source.
Legend:
P. falciparum [1] = test: P. falciparum humanized NOD-scid IL2R_null mouse model; settings: chloroquine 50 mpk oral q.d. 4 days from day 3
Experimental: Compounds were tested in the murine P. falciparum SCID model ([Angulo-Barturen et al., 2008]). […] The mice were intravenously infected with 2 × 10^7 P. falciparum Pf3D7-infected erythrocytes (day 0) ([Angulo-Barturen et al., 2008]). On day 3 after infection, mice were randomly allocated to treatments that were administered once a day for 4 consecutive days (n = 3 mice) by oral gavage at 10 mL/kg. Parasitemia was measured by microscopy. Chimerism was monitored by flow cytometry using anti-murine erythrocyte TER119 monoclonal antibody (PharMingen, San Diego, CA) and SYTO-16 and then analyzed by flow cytometry in serial 2 μL blood samples taken every 24 h until assay completion.

P. berghei [2] = test: Dose ranging test for P. berghei infection in mice; type: in vivo, Plasmodium berghei; settings: chloroquine 10 mpk oral q.d. 4 days
Experimental: Control mice were treated orally with chloroquine for 4 days under q.d. dosing regimen at 10 mpk/day. From day 2 to 30 post infection, parasitemia was measured daily by flow cytometry and microscopy, as described above. Survival of animals to day 30 post infection, with no detectable parasites in the peripheral blood, were considered to be cured (i.e., 100% efficacy).

P. falciparum 3D7 = test: Ring stage survival assay for artesunate; type: cell-based, Plasmodium falciparum; settings: 3D7, 700 nM artesunate 6 h, then 66 h drug-free
Experimental: The method for determining sensitivity to artesunate was as described ([Kite et al., 2016]). Parasites were synchronized twice with 5% sorbitol at 46 h intervals and again when they were a mixture of schizonts and early rings. Triplicate 1 mL cultures were set up in 24 well plates (Falcon) at 0.5% parasitemia and 2% hematocrit with either 700 nM artesunate (Sigma) or 0.1% DMSO vehicle control. Following 6 h incubation, the cells were washed and incubated in drug-free media for a further 66 h. A 50 μL sample of each culture was fixed with 0.25% glutaraldehyde and stained with 5X SYBR then parasitemia was determined by flow cytometry. Percentage survival is parasitemia relative to vehicle treated parasites.
The percentage survival of all parasite lines was high in our experiments (∼5% for 3D7) was high compared to that described previously ([Kite et al., 2016]) most likely because we used a FACS based method was used for detection and quantitation. However, we were clearly able to distinguish the resistant CAM3 R539T line from the sensitive CAM3 Rev and 3D7 parasite lines.

[3] = system: protein processing by PMIX and PMX in P. falciparum; test: Processing inhibition assays (immunoblot of merozoites and supernatants); type: cell-based, Plasmodium falciparum; settings: E64 10 μM, WM4 40 nM, WM382 2.5 nM
Experimental: Processing inhibition assays were performed as previously described ([Boyle et al., 2010]). Synchronized late trophozoite/early schizont cultures to which protease inhibitors had already been added, were passed over LD magnetic columns (Miltenyi Biotech) to remove uninfected erythrocytes. The cysteine protease inhibitor E64 (Sigma) was used at 10 μM. […] A control dish without any protease inhibitor was also included. Parasites were eluted from columns with complete RPMI 1640 culture medium to which the appropriate inhibitor at the same concentration had been added. Eluted parasites were adjusted to 5x10^6 schizonts/mL and 150 ul added per well of a 96-well flat-bottomed culture dish. […] Parasites from each condition were spun at 10000 g/10 min so that merozoite and supernatant fractions could be separately collected. Proteins from both fractions were extracted with Reducing sample buffer and separated on 4%–12% or 3%–8% acrylamide gels (NuPAGE, Invitrogen).

[4] = target: T1, recombinant PMX protein (rPMX) (Plasmodium falciparum, UniProt Q8IAS0)
T1 sequence (Q8IAS0 222-573): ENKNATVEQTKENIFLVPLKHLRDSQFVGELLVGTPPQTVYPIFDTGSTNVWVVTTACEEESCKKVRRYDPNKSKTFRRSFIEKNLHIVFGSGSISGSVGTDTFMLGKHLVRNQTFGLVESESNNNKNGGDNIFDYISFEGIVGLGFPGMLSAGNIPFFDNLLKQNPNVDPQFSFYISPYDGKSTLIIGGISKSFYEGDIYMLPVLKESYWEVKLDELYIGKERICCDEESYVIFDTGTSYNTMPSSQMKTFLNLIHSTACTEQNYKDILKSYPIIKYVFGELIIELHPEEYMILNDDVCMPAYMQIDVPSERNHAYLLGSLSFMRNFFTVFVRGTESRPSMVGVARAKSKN
Experimental: (§2) All wells were backfilled to 200 nL DMSO such that it remains constant across the assay plates (1% final). IC50 values were calculated by Dotmatics 5.3 and Spotfire 7.11.1 software using a nonlinear regression four-parameter fit analysis. The equation used is sigmoidal dose response (variable slope), Y = bottom + (top − bottom)/(1+10((logEC50 − X) × Hill Slope)). Compound Ki values were calculated from the IC50s using the Cheng-Prusoff equation, Ki = IC50/(1 + [S]/Km).
(§3) All compound potency assays were conducted in 20 μl total volume. For each assay, 10 μl of recombinant enzymes in respective assay buffers (Table) were dispensed into compound containing assay plates using a Multidrop Combi dispenser and allowed to incubate for 15 min. The reactions were started with a further 10 μl addition of FRET peptide substrates and reactions incubated at 37 °C for various times (Table).Samples were excited at 340 nm and fluorescence emission measured at 492 nm using an Envision fluorescence plate reader (Perkin-Elmer).

[5] = Pharmacokinetic attributes (no method given); settings: in vivo
[6] = system: WM5 and 4 resistant P. falciparum; test: microbe, parasite or virus in culture; type: cell-based, Plasmodium falciparum
Experimental: (§1) After 72 h incubation at 37°C each well was fixed at room temperature for 30 min with 50 μL of 0.25% glutaraldehyde (ProSciTech) diluted in PBS. Following centrifugation at 1200 rpm for 1 min, supernatants were discarded and parasites were stained with 50 μL of 5X SYBR Green (Invitrogen) diluted in PBS. 50,000 cells were counted by flow cytometry using a Cell Lab Quanta SC – MPL Flow Cytometer (Beckman Coulter) ([Bacon et al., 2007]). Growth was expressed as a percentage of the parasitemia obtained using a vehicle control. All samples were tested in triplicate. EC50 values were determined using GraphPad Prism.
The parent and resistant lines were then cloned by limiting dilution, the EC50 for each line was determined and genomic DNA was purified from clonal parasites (QIAGEN Blood and Tissue Kit).

HepG2 cells = test: EC50 for HepG2 cells; type: cell-based; settings: Homo sapiens
[7] = target: T1, recombinant PMX protein (rPMX); test: biochemical
Experimental: as §2, §3

[8] = target: T2, P. falciparum aspartic protease, PMV (Plasmodium falciparum, UniProt Q8I6Z5); test: Peptide cleavage (FRET) assay, PMV; type: biochemical; settings: calculated from IC50 with Cheng-Prusoff equation
T2 construct: made in house
T2 sequence (Q8I6Z5 whole entry): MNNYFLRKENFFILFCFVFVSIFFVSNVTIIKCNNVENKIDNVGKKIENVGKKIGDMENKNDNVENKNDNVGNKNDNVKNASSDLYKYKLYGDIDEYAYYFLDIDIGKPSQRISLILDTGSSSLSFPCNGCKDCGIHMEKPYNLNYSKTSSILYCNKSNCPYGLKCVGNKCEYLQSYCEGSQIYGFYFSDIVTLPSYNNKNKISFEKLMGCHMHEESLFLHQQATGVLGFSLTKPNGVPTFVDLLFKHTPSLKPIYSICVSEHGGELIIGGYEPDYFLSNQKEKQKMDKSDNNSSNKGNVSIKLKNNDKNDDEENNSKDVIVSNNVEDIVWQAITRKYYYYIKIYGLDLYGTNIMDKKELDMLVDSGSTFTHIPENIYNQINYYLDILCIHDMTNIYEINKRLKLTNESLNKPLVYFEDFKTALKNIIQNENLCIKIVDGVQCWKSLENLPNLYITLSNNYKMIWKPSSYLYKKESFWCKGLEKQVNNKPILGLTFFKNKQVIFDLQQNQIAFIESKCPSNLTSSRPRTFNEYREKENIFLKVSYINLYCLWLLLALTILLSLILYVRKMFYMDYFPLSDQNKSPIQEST

3D7 parasite cultures = test: Time of drug killing; type: cell-based, Plasmodium falciparum; settings: 80nM WM4, 40nM WM5, 5nM WM382, added to early rings
Experimental: 3D7 parasite cultures were synchronized using 5% sorbitol (Sigma) twice at 46 h intervals then again when the culture was a mix of late schizonts and early rings. […] The parasitemia of each culture was quantitated every 8 h for 48 h by collecting 50 μL samples for counting by flow cytometry (as previously described). The developmental stage of the parasites was confirmed at each time point by microscopic examination of Giemsa stained thin blood films. Media and compound were replaced at the 32 h time point.

P. falciparum [9] = test: P. falciparum asexual blood-stage growth inhibition (LDH or SYBR Green flow cytometry); type: cell-based, Plasmodium falciparum
Experimental: For High Throughput Screening (HTS) of compounds we used the lactate dehydrogenase (LDH) assay to detect parasitemia ([Makler et al., 1993], [Oduola et al., 1997]) formatted in a 384 well assay using an Echo555 (Labcyte). The P. falciparum assay was conducted with minor modifications ([Gamo et al., 2010]). Briefly, an inoculum of parasitized red blood cells at 0.7% parasitemia and 2% hematocrit in RPMI-1640, 5% AlbuMAX, 2% d-sucrose, 0.3% glutamine and 150 μM hypoxanthine was used for the assay. Assay plates (Greiner #781098, 384 well, white, tissue culture treated) were prepared by dispensing 1 μl of compound from master plates at 20 μM (10% DMSO stock) into 9ul pre-dispensed growth media in each well. The parasite inoculum (30 μl) was dispensed into plates containing compounds using a Multidrop Combi dispenser (Thermo Scientific). Final assay volume was 40 μl and final compound concentration was 500 nM. The positive growth control was 0.25% DMSO and the negative growth control was 100 nM chloroquine. Plates were incubated at 37 °C for 72 h in an atmosphere of […]. Following 72 h growth, plates were sealed with parafilm and frozen at −80 °C overnight. Plates were thawed at room temperature for at least 4 h prior to LDH activity being measured. 45 μl of fresh LDH reaction mix (174 mM sodium l-lactate, 214 μM 3-acetyl pyridine adenine dinucleotide (APAD), 270 μM Nitro Blue tetrazolium chloride (NBT), 4.35 U ml-1 diaphorase, 0.7% Tween 20, 100 mM Tris-HCl pH 7.5) was dispensed into each well using a Multidrop Combi dispenser. Plates were shaken to ensure mixing and absorbance at 650 nm was measured in an EnVision (PerkinElmer) plate reader after 30 min of incubation at room temperature. Data were normalized to percent growth inhibition using positive and negative controls and analyzed using Dotmatics 5.3 and Spotfire 7.11.1 (Tibco) software.
All wells were backfilled with DMSO to 45 nL such that this remained constant (0.1% DMSO). The positive growth control was 0.1% DMSO and the negative growth control was 100 nM chloroquine. Parasite inoculum (40 μl) was dispensed into plates containing compounds as described above. All other culture and lactate dehydrogenase (LDH) reaction methods are as described previously ([Makler et al., 1993], [Oduola et al., 1997]).
as §1

P. berghei [10] = test: Peters' 4-day suppressive test for P. berghei infection in mice; type: in vivo, Plasmodium berghei; settings: intraperitoneal, 20 mpk q.d., 4 days, Swiss mice
Experimental: For results shown in Figure 1 A male Swiss mice were infected intraperitoneally (IP) with 1 × 10^6 P. berghei ANKA-parasitised red blood cells withdrawn from a previously infected donor mouse. Test compounds were prepared in a vehicle consisting of 10% DMSO/90% Solutol (5% Solutol® HS-15 in 0.9% saline). […] Peripheral blood samples were taken 24 h after administration of the last dose, and parasitemia was measured by microscopic analysis of Giemsa-stained blood smears. Parasitemia values were averages for 6 mice per group and are expressed as percent parasitemia. For results shown in Figure 4A ‘donor’ female Swiss mice were infected intraperitoneally (IP) with blood stage P. berghei parasites constitutively expressing GFP (P. berghei ANKA GFPcon 259cl2 ([Franke-Fayard et al., 2004]). Three days later, groups of 4 ‘acceptor’ Swiss mice were infected intravenously (IV) with 1 × 10^7 parasitised erythrocytes from the ‘donor’ mice. Two h post infection, experimental mice (4 per cohort) were left untreated (control mice) or treated orally on 4 consecutive days with test drugs formulated in 20% DMSO/60% PG/20% water (v/v/v) or chloroquine dissolved in water. […] Peripheral blood samples were taken 12 h after the last treatment, and parasitemia measured by flow cytometry (proportion of GFP-positive cells in 100,000 recorded events using FACSCalibur, BD) and microscopic analysis of Giemsa-stained blood smears. Parasitemia values were averages for 4 mice per group and are expressed as percent parasitemia.

Dd2 parasites = type: cell-based, Plasmodium falciparum; settings: inocula 10^5 to 10^9 parasites, up to 90 days
Excerpt: Each experiment was monitored by weekly microscopic examination of thin blood films. Media and compound were replaced three times each week.

[11] = 3D7 parasite line, asexual blood stage, read-out: EC50, inhibition of P. falciparum growth

CCN(CC)CCCC(C)Nc1ccnc2cc(Cl)ccc12 (stereo not shown) [chloroquine, reference compound]
day by which mice were cleared of parasitemia (P. falciparum [1]): ≤ 7 days
day post-infection on which parasites were detectable (P. berghei [2]): 10 days

C[C@H]1[C@H](OC(=O)CCC(=O)O)O[C@@H]2O[C@@]3(C)CC[C@H]4[C@H](C)CC[C@@H]1[C@@]24OO3 [artesunate]
percentage survival, ring stage survival assay (P. falciparum 3D7): ~5%

CC(C)C[C@H](NC(=O)[C@H]1O[C@@H]1C(=O)O)C(=O)NCCCCN=C(N)N [E64, reference compound]
AMA1 processing in merozoites [3]: not affected
ASP processing [3]: ASP was processed
MTRAP processing [3]: did not inhibit its processing
PMIX processing in parasites [3]: not inhibited
RAP1 processing [3]: Two processed forms of RAP1 (p82 and p69) are detected
RON3 processing [3]: did not block processing
Rh1 processed fragments, release into the supernatant [3]: the processed fragments were released into the supernatant

CC(C)CC(c1ccc(C(F)(F)F)c(C(=O)N2Cc3nccnc3C2)c1)N1C(=N)NC(CC2CC2)(c2ccccc2)CC1=O (racemic) [WM5]
Fold Selectivity PMX v PMV [4]: 1,755 fold
pharmacokinetic attributes [5]: did not have desirable pharmacokinetic attributes
EC50 ([6]; Plasmodium falciparum, 3D7, read-out: EC50, 3D7, parental line 3D7): 13.5 ± 0.78 nM
EC50 ([6]; Plasmodium falciparum, 3D7, read-out: EC50, 3D7-WM4.1, WM4-resistant line 3D7-WM4.1): 202 ± 7.23 nM
EC50 ([6]; Plasmodium falciparum, 3D7, read-out: EC50, 3D7-WM4.2, WM4-resistant line 3D7-WM4.2, Figure S1): 144 ± 46.6 nM
EC50 ([6]; Plasmodium falciparum, 3D7, read-out: EC50, 3D7-WM5.1, WM5-resistant line 3D7-WM5.1): 172 ± 6.95 nM
EC50 ([6]; Plasmodium falciparum, 3D7, read-out: EC50, 3D7-WM5.2, WM5-resistant line 3D7-WM5.2, Figure S1): 118 ± 4.7 nM
EC50 ([6]; Plasmodium falciparum, 3D7, read-out: EC50, 3D7-WM5.3, WM5-resistant line 3D7-WM5.3, Figure S1): 51.8 ± 19.7 nM
fold resistance of 3D7-WM5.1 compared with 3D7 ([6]; printed as X in Figure 1E): 13 fold
EC50 ([6]; read-out: EC50, 3D7-WM4.1, WM4-resistant line 3D7-WM4.1): 107 ± 2.2 nM
EC50 ([6]; read-out: EC50, 3D7-WM5.1, WM5-resistant line 3D7-WM5.1): 172 nM and 117 nM
EC50 ([6]; read-out: EC50, 3D7, parental line 3D7): 11.1 ± 3.7 nM
EC50 (HepG2 cells): 17900 ± 2000 nM
IC50 [7]: 3.02 nM
Ki [7]: 1.9 ± 0.6 nM
Ki [8]: 3300 ± 540 nM
stage of arrest of blood-stage development (3D7 parasite cultures): arrested at late schizont stage
EC50 (P. falciparum [9]; Plasmodium falciparum, Figure 2C, mean ± SD, three experiments, read-out: EC50 P. falciparum): 9.3 ± 2.7 nM
in vivo activity against P. berghei infection (P. berghei [10]): partial efficacy

CC(NC(=O)c1cccc(C(c2ccccc2)N2C(=N)NC(C)(C(C)C)CC2=O)c1)c1ccccc1 (stereo not shown) [R-WM4]
EC50 (P. falciparum [9]; [11]): 4.6 nM

O=C1C(O)=C([C@H]2CC[C@H](c3ccc(Cl)cc3)CC2)C(=O)c2ccccc21 [atovaquone]
selection of resistant parasites, time to resistance (Dd2 parasites): Parasites resistant to atovaquone were selected

CC(C)CC(c1ccc(C(F)(F)F)c(C(=O)N2Cc3nccnc3C2)c1)N1C(=N)NC(CC2CC2)(c2ccccc2)CC1=O (stereo not shown) [R-WM5]
EC50 (P. falciparum [9]; [11]): 10 nM

CC(NC(=O)c1cccc(C(c2ccccc2)N2C(=N)NC(C)(C(C)C)CC2=O)c1)c1ccccc1 (stereo not shown) [S-WM4]
EC50 (P. falciparum [9]; [11]): 440 ± 113 nM

CC(C)CC(c1ccc(C(F)(F)F)c(C(=O)N2Cc3nccnc3C2)c1)N1C(=N)NC(CC2CC2)(c2ccccc2)CC1=O (stereo not shown) [S-WM5]
EC50 (P. falciparum [9]; [11]): 688 ± 218 nM

— article PMC7146544, “Dual Plasmepsin-Targeting Antimalarial Agents Disrupt Multiple Stages of the Malaria Parasite Life Cycle” (Cell Host & Microbe, 2020)
